Results taken from paper PMC11062894, “Protein-based bandpass filters for controlling cellular signaling with chemical inputs” (Nature Chemical Biology, 2023).

Legend:
BclXL = conditions: cited from earlier work
HEK293T cells = type: cell-based; conditions: 10 µM A-1155463
Description: drug controlled switches. […]
drug competition assay. This assay is designed to test if the drug of interest can specifically disrupt the interaction between LD3 and BclXL/Bcl2. The drug-receptors (Bcl2, BclXL) are immobilized on the different channels of the sensor chip, then the binding sites are saturated with LD3. While the flux of A-1155463 (red) flows through the sensor chip, the loss of signal is used to monitor the dissociation of the protein complex. b) Drug effects on reporter protein expression of HEK293T cells. HEK293T cells were transfected with a plasmid for constitutive SEAP production and incubated with indicated drugs for 24 hours. SEAP quantifications were performed to measure the protein production and WST-8 was used to test the cell proliferation. Each bar represents the mean of six biological replicates ± s.d., overlaid with a scatter dot plot of the original data points. […]
was added after 24 hours of drug incubation, and measured for absorbance at 450 nm 4 hours later. […]
production of HEK293T cells. […] SEAP quantifications were performed to measure the protein production and WST-8 was used to test the cell proliferation. For cell proliferation assay, WST-8 was added after 24 hours of drug incubation, and measured its absorbance at 450 nm 4 hours later. […]
ranging from 1 pM to 1 µM were added 12 hours post-transfection, then SEAP was measured 24 hours […]

SMILES: CN(C)CC#Cc1ccc(OCCCc2sc(N3CCc4cccc(C(=O)Nc5nc6ccccc6s5)c4C3)nc2C(=O)O)c(F)c1 [A-1155463]
- Kd (BclXL): < 10 pM
- effect on cell survival (HEK293T cells): does not perturb
- effect on reporter gene expression (HEK293T cells): does not perturb
